Read-outs that look alike come from different tables or passages of the source.
What was measured:
Format in all cases: cell-based
[1] = biological target: T1, GluN1-GluN2B NMDAR subtype (Homo sapiens, UniProt Q05586+Q13224); experiment: FLIPR/Ca2+ assay, NMDAR GluN1-GluN2B subtype in CHO cells
T1 construct: host or cells: NR1-2B-CHO cells, constitutive expression
Procedure: (§1) These compounds were assessed for their effects on specific heterodimeric NMDAR subtypes stably overexpressed in Chinese Hamster Ovary (CHO) cells. The subtypes tested included GluN1-GluN2A, GluN1-GluN2B, GluN1-GluN2C, and GluN1-GluN2D. CHO cells expressing each of the four NMDAR subtypes were incubated with 10 μM L-glutamate, a concentration known to elicit maximal Ca^2+ influx, serving as the stimulus. Intracellular Ca^2+ levels were subsequently measured to determine the extent of NMDAR activation.
(§2) Assay buffer composition was 145 mM NaCl, 5 mM KCl, 2 mM CaCl2, 1 g/Liter D-(+)-glucose, and 20 mM HEPES (pH 7.3 adjusted with NaOH). Cells were plated at a density of 15.000/well in 384 black/clear bottom plates. […] Cells were kept at 30 °C in 5% CO2 incubator for 24 h. Cells were preloaded for 1 h with 2 μM Fluo-4 Ca^2+-sensitive probe, simultaneously with 2.5 mM probenecid, an inhibitor of nonspecific anion transport, and 500 μM ketamine to avoid cytotoxicity. […] Intracellular Ca^2+ level was monitored by FLIPR (excitation wavelength at 470–495 nm, emission wavelength at 515–575 nm) for 10 s before and 5 min after the addition of test items. All test items, including L-glutamate and glycine, were added simultaneously. […] FLIPR data were normalized as 100%, in the presence of 10 μM L-glutamate and 10 μM glycine, while as 0%, in the presence of assay buffer. […] Then, data were normalized by Excel 2013 (Microsoft Office) software, using wells added with 10 μM L-glutamate plus 10 μM glycine (column 23) as high control, and wells added with assay buffer only (column 24) as low control. To assess plate quality, Z′ calculations were performed in Excel. Z′ was calculated according to following equation: Z′ = 1–3(σh + σl)/|μh – μL| where μ and σ are the means and the standard deviations of the means of high (h) and low (l) controls, respectively. Compound concentration–response curves were plotted by Prism 8 GraphPad software, in the different experimental conditions (see Supporting Information). Data were analyzed using least-squares regression fitting, to fit data to a standard four parameters logistic equation using GraphPad Prism10. This regression fitting allowed the calculation of pIC50 and the corresponding SEM.

[2] = biological target: GluN1-GluN2A NMDAR subtype (Homo sapiens, UniProt Q05586+Q12879); experiment: FLIPR/Ca2+ assay, NMDAR GluN1-GluN2A subtype in CHO cells
Procedure: as §1, §2

[3] = biological target: GluN1-GluN2C NMDAR subtype (Homo sapiens, UniProt Q05586+Q14957); experiment: FLIPR/Ca2+ assay, NMDAR GluN1-GluN2C subtype in CHO cells
Procedure: as §1, §2

[4] = biological target: GluN1-GluN2D NMDAR subtype (Homo sapiens, UniProt O15399+Q05586); experiment: FLIPR/Ca2+ assay, NMDAR GluN1-GluN2D subtype in CHO cells
Procedure: as §1, §2

[5] = CHO cells, 10 μM L-glutamate and 10 μM glycine, n.d. = 50% of inhibition could not be reached at the highest concentration used
[6] = CHO cells, 10 μM L-glutamate and 10 μM glycine, n.d. = 50% of inhibition could not be reached at the highest concentration used, read-out: pIC50 (mean ± SEM) GluN1-GluN2B (converted)
[7] = CHO cells, 10 μM L-glutamate and 10 μM glycine, n.d. = 50% of inhibition could not be reached at the highest concentration used, read-out: pIC50 (mean ± SEM) GluN1-GluN2A (converted)
[8] = CHO cells, 10 μM L-glutamate and 10 μM glycine, n.d. = 50% of inhibition could not be reached at the highest concentration used, read-out: pIC50 (mean ± SEM) GluN1-GluN2C (converted)
[9] = CHO cells, 10 μM L-glutamate and 10 μM glycine, n.d. = 50% of inhibition could not be reached at the highest concentration used, read-out: pIC50 (mean ± SEM) GluN1-GluN2D (converted)

Sequence of GluN1-GluN2A NMDAR subtype (Q12879 23-1464, other chains not shown): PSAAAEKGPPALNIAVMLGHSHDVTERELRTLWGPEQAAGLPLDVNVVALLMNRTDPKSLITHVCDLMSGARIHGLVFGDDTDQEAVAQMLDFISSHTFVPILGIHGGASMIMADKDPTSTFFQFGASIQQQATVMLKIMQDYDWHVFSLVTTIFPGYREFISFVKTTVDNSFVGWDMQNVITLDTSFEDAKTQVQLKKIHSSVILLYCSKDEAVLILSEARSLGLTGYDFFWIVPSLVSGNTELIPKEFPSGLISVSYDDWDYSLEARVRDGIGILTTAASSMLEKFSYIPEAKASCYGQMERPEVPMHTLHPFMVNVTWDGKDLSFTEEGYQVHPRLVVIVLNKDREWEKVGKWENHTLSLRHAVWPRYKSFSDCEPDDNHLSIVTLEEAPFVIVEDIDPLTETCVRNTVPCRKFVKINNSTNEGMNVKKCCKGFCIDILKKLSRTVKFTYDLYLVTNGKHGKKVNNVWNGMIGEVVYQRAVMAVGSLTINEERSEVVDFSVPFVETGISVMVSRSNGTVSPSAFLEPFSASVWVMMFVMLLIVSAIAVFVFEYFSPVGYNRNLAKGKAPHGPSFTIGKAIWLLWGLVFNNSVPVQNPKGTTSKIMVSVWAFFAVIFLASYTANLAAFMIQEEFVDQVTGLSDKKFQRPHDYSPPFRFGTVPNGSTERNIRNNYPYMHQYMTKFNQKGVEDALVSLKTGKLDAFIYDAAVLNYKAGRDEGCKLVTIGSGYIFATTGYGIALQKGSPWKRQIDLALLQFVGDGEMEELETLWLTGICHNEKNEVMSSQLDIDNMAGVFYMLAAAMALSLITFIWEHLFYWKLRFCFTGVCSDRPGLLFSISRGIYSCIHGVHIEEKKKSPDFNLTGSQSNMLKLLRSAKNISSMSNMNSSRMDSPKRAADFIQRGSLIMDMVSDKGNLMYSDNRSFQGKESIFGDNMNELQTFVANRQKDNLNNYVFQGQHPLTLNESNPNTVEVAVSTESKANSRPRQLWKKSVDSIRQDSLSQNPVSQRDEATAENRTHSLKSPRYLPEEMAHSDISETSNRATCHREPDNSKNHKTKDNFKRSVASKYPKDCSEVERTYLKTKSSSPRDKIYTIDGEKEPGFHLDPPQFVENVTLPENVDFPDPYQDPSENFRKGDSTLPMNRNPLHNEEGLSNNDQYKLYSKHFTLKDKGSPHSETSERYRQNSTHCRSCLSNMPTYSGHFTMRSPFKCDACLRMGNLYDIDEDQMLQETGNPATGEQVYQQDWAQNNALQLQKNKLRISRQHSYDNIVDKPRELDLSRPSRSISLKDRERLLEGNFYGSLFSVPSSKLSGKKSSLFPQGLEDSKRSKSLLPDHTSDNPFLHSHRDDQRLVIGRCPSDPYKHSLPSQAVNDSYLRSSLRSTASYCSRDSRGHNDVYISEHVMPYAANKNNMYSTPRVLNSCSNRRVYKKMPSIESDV
Sequence of GluN1-GluN2C NMDAR subtype (Q14957 20-1233, other chains not shown): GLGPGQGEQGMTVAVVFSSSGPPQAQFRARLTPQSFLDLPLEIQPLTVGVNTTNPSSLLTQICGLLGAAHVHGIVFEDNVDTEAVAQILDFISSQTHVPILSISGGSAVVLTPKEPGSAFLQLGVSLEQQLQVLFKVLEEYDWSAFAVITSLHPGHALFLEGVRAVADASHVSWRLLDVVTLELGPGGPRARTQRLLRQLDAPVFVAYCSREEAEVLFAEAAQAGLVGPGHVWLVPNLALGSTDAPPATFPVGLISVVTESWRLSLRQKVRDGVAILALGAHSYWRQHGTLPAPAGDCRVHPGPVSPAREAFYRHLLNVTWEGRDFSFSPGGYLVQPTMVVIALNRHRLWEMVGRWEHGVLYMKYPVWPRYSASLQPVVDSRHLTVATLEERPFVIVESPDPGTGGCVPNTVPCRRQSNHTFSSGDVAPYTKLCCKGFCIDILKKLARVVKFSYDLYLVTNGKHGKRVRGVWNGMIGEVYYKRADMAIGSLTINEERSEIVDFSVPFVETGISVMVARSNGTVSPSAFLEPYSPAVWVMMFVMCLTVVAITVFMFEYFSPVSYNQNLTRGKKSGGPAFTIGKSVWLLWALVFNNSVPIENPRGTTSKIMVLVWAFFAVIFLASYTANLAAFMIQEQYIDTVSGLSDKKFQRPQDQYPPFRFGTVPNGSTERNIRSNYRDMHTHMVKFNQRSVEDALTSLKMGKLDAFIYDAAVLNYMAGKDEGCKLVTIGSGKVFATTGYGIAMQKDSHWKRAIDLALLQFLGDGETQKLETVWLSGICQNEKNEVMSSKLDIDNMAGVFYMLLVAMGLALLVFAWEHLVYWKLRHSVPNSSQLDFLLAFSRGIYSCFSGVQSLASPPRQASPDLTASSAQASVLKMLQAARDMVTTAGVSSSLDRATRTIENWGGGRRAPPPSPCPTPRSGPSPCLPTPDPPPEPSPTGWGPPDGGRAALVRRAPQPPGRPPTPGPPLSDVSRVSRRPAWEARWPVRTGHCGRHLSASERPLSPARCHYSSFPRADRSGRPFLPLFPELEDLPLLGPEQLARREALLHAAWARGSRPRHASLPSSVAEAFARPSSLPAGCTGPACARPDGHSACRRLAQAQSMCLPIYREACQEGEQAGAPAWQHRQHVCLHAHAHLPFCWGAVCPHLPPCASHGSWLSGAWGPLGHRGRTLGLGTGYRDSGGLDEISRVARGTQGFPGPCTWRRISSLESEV
Sequence of GluN1-GluN2D NMDAR subtype (O15399 28-1336, other chains not shown): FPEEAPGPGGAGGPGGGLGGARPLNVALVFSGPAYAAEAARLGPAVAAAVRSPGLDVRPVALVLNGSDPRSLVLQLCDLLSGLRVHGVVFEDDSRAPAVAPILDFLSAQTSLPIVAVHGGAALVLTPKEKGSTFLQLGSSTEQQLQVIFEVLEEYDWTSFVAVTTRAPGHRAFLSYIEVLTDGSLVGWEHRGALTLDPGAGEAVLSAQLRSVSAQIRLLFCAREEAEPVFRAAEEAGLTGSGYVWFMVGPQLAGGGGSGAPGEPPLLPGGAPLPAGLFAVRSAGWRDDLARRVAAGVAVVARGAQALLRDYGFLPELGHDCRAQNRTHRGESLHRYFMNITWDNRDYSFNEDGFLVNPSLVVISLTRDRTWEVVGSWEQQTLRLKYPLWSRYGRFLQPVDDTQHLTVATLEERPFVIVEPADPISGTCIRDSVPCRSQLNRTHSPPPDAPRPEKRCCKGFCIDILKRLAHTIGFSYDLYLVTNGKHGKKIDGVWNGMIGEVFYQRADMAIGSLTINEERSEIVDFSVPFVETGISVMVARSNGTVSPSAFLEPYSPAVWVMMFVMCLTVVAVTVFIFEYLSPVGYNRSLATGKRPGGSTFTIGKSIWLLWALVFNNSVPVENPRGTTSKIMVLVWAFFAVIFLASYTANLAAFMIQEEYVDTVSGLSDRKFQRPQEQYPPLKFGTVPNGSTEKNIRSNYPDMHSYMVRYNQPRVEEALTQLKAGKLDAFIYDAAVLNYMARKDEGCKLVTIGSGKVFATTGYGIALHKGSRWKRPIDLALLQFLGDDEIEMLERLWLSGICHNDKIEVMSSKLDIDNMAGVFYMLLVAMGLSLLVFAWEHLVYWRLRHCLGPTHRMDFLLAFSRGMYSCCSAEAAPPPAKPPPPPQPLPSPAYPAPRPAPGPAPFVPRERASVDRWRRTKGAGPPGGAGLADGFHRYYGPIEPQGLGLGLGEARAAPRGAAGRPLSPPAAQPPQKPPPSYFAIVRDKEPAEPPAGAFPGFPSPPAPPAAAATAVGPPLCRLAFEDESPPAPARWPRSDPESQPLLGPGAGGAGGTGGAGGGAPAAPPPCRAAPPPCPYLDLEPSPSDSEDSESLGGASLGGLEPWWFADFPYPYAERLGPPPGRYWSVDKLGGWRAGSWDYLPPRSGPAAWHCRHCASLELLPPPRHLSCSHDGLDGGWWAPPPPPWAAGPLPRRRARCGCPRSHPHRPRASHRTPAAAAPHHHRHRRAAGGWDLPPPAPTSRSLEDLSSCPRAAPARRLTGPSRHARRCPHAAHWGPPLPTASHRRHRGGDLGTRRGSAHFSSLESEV

| SMILES | pIC50 (mean ± SEM) GluN1-GluN2B [1, 5] | pIC50 (mean ± SEM) GluN1-GluN2A [2, 5] | pIC50 (mean ± SEM) GluN1-GluN2C [3, 5] | pIC50 (mean ± SEM) GluN1-GluN2D [4, 5] | IC50 [1, 6] [µM] | IC50 [3, 8] [µM] | IC50 [4, 9] [µM] | also measured |
| --- | --- | --- | --- | --- | --- | --- | --- | --- |
| CNC1(c2ccccc2Cl)CCCCC1=O (racemic) [(±)-ketamine, reference compound] | 5.2 ± 0.037 | 4.6 ± 0.028 | 5.4 ± 0.069 | 5.0 ± 0.087 | – | – | – | – |
| CC[C@H](O)C(C[C@H](C)N(C)C)(c1ccccc1)c1ccccc1 [(3S,6S)-ML, (3S,6S)-6-(dimethylamino)-4,4-diphenylheptan-3-ol] | 4.0 ± 0.077 | 4.1 ± 0.034 | 4.1 ± 0.056 | 4.2 ± 0.16 | – | – | – | – |
| C[C@H]1CC(c2ccccc2)(c2ccccc2)C(=O)N1C [(S)-DDPO, 1,5-Dimethyl-3,3-diphenylpyrrolidin-2-one] | – | – | – | – | > 100 | > 100 | > 100 | IC50 [2, 7]: > 100 µM |
| CCC1=N[C@@H](C)CC1(c1ccccc1)c1ccccc1 [(S)-EMDP, 5-Ethyl-2-methyl-4,4-diphenyl-3,4-dihydro-2H-pyrrole] | – | – | – | – | > 100 | > 100 | > 100 | – |
| C[C@]12N[C@H](Cc3ccccc31)c1ccccc12 [(+)-MK-801, reference compound] | 7.2 ± 0.067 | – | 6.2 ± 0.064 | 6.1 ± 0.58 | – | – | – | – |
| C[C@@H](CC(C(=O)O)(c1ccccc1)c1ccccc1)N(C)C [(S)-DDVA, 4-(Dimethylamino)-2,2-diphenylpentanoic acid] | – | – | – | – | > 100 | > 100 | > 100 | IC50 [2, 7]: > 100 µM |
| CC[C@@H](O)C(C[C@@H](C)N(C)C)(c1ccccc1)c1ccccc1 [(3R,6R)-ML, (3R,6R)-6-(dimethylamino)-4,4-diphenylheptan-3-ol] | 4.0 ± 0.12 | 4.5 ± 0.085 | 4.1 ± 0.062 | 4.3 ± 0.12 | – | – | – | – |
| CCC1=[N+](C)[C@@H](C)CC1(c1ccccc1)c1ccccc1 [(S)-EDDP, 2-Ethyl-1,5-dimethyl-3,3-diphenyl-3,4-dihydro-5H-pyrrolium chloride] | – | – | – | – | – | – | – | IC50 [1]: > 100 µM; IC50 [2]: > 100 µM; IC50 [3]: > 100 µM; IC50 [4]: > 100 µM |
| COc1ccc2c(c1)[C@]13CCCC[C@@H]1[C@H](C2)N(C)CC3 [dextromethorphan, reference compound] | 4.8 ± 0.037 | 4.3 ± 0.029 | 5.2 ± 0.057 | 4.6 ± 0.12 | – | – | – | – |

Source: paper PMC11912475 (Journal of Medicinal Chemistry, 2025)
